Results reported in US20240254119A1 (THIRD HARMONIC BIO, INC., priority 2022, published 2024).

What was measured:
wtKIT [1] = biological target: T1, wtKIT (Homo sapiens, UniProt P10721); assay: Caliper biochemical assay, wtKIT; conditions: Table 6, read-out: KIT Biochemical IC50 avg
T1 construct: 1888289AM in the reaction mixtures
Experimental: (§1) Enzyme, substrate, and cofactors (ATP and Mn^2+) are combined in a well of a microtiter plate and incubated for 3 hours at 25° C. At the end of the incubation, the reaction is quenched by the addition of an EDTA-containing buffer. Substrate and product are separated electrophoretically using the microfluidic-based LabChip 3000 Drug Discovery System from Caliper Life Sciences* and quantitated by fluorescence intensity.
(§2) The substrate used in the CSF-1R and PDGFRα assay is FAM-[…]-CONH2 (FAM is carboxyfluorescein). Peptide should be >95% purity. The substrate for the KIT assay is FAM-[…]-NH2.
(§3) • 1. To a well of a 384-well plate add 5 μL of 2× enzyme buffer (or control) • 2. Add 100 nL of 100× compound. • 3. Add 5 μL of 2× substrate buffer. • 4. Incubate plate at 25° C. for 3 hours. • 5. Add 10 uL of […]. • 6. Read plate LabChip 3000 Drug Discovery System
(§4) • 3 hours at 25° C. where 100% Inhibitor: No enzyme.
• 100 mM HEPES, pH 7.5 0.1% BSA • 0.01% Triton X-100 • 1 mM DTT • 10 mM MnCl2 • 10 μM Sodium Orthovanadate • 10 μM Beta-Glycerophosphate • 400 μM ATP • 1% DMSO (from compound) • 1 μM FAM-[…]-CONH2 5.0 nM wtKIT Enzyme (1888289AM)* • *Specific activity may vary from lot to lot. Enzyme concentration may need to be adjusted to yield 10-20% conversion of substrate to product.

CSF-1R = biological target: T2, CSF-1R (Homo sapiens, UniProt P07333); assay: Caliper biochemical assay, CSF-1R; conditions: Table 6
T2 construct: purchased Invitrogen PV3249 (lot 662393N)
T2 sequence (P07333 20-972): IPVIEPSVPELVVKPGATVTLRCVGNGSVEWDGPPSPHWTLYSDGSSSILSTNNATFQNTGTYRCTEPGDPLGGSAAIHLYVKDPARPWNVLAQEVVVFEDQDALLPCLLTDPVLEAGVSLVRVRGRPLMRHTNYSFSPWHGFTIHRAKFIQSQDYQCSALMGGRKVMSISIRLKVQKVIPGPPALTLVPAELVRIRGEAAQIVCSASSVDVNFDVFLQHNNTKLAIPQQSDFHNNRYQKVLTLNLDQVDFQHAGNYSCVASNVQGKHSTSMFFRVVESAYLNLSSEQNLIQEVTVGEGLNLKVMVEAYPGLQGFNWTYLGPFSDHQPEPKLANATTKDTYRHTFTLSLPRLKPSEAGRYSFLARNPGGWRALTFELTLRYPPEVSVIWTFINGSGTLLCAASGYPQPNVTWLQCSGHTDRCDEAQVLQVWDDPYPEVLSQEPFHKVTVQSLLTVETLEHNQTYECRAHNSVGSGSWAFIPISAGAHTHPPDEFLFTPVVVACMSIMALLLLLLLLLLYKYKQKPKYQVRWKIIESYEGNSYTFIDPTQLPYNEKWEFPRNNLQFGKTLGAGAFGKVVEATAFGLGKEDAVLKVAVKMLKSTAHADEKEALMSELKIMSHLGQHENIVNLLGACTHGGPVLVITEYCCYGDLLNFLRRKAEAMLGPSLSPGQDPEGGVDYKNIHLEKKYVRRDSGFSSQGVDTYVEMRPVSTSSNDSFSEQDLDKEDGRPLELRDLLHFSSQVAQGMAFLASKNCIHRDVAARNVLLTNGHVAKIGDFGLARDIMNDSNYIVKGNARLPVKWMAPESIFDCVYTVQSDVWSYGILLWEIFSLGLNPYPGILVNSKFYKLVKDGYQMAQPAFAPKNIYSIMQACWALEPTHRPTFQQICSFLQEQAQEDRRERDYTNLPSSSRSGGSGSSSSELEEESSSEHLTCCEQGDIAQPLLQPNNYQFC
Experimental: as §1, §2, §3, §4

PDGFRα = biological target: T3, PDGFRα (Homo sapiens, UniProt P16234); assay: Caliper biochemical assay, PDGFRα; conditions: Table 6
T3 construct: purchased Millipore 14-467 (lot 26321_ACTI)
T3 sequence (P16234 24-1089): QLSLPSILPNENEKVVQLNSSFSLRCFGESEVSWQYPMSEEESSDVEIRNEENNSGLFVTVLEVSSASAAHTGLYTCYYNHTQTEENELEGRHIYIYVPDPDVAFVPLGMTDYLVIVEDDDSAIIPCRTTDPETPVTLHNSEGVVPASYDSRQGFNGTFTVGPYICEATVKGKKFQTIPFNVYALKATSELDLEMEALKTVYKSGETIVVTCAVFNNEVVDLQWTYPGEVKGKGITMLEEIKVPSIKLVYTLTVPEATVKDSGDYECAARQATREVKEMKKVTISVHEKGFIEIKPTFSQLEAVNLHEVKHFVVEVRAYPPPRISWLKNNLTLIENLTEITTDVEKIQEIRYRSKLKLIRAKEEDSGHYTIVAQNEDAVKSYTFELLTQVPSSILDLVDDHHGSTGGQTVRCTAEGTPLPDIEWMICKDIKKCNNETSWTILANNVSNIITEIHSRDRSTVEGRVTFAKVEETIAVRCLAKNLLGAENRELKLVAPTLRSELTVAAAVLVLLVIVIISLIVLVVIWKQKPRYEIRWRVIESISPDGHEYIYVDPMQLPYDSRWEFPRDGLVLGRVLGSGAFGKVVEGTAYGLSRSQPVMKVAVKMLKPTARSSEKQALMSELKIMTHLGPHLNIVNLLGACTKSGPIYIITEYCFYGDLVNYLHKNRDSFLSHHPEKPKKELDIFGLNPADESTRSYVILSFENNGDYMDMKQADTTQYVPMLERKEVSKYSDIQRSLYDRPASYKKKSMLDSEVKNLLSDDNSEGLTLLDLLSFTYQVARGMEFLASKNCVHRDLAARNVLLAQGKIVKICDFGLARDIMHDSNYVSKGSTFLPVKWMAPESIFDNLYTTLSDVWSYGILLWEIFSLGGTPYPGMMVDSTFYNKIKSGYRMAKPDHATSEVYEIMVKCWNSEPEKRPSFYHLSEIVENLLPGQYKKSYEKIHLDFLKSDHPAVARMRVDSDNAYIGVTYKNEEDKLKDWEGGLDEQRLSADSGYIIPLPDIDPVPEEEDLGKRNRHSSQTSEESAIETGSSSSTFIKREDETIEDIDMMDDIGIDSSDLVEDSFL
Experimental: as §1, §2, §3, §4

Kinetic solubility assay = format: physicochemical; conditions: kinetic solubility, 50 mM PB (pH 7.4), shaken 24 hours at RT
Method in brief: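 Concentration in the filtrate was determined by UPLC-UV or HPLC-UV with a standard curve. Before that, compound (10 mM DMSO stock) in 50 mM PB at pH 7.4 was agitated 24 h at room temperature, then PTFE-filtered with centrifugation.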

[2] = biological target: T4, BCRP (BCRP-MDCKII monolayer) (Homo sapiens, UniProt Q9UNQ0); assay: MDCKII-BCRP bidirectional transport assay; format: in vitro ADME; conditions: for MDCK-BCRP: Papp A-B: apical to basolateral
T4 construct: host or cells: MDCKII (canine kidney) cells
T4 sequence (Q9UNQ0 1-655): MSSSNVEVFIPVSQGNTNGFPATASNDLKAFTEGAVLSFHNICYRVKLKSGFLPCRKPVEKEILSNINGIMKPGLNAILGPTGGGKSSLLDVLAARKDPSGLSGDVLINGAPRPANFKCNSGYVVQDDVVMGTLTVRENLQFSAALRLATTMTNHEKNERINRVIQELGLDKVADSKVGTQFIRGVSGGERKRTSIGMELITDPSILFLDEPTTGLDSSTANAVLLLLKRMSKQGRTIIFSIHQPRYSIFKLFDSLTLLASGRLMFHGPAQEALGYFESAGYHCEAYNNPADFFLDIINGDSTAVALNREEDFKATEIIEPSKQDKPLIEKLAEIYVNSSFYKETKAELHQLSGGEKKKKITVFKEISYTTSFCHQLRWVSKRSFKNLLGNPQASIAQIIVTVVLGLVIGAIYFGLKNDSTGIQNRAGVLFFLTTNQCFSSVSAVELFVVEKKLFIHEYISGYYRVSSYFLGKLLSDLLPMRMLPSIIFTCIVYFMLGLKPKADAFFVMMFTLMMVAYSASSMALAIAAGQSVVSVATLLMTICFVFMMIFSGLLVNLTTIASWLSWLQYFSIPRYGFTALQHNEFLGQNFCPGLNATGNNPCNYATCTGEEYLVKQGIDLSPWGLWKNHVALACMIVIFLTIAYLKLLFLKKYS
Experimental: Exemplary compounds were tested for cell permeability in Caco-2, MDCKII-MDR1 and MDCKII-BCRP cell lines with efflux transporter engagement inferred from the efflux ratios determined. Procedures and results are described below. […] This feature of certain compounds is in part due to efflux transporter engagement. See, for instance, exemplary such compounds included in data tables below.
The reference compound Teriflunomide and test compounds are tested in the bidirectional assay. Test compound and reference compounds incubations were tested in duplicates.
The transport assay can be performed between days 12 to day 15 using ready to use PreadyPort™ BCRP-MDCKII monolayer in 96 well plate.
The medium was aspirated from the apical and basal compartments and 75 and 235 μL assay buffer was added to each of the 96 wells of apical and basal compartments of the PreadyPort™ plate.
The plates were pre-incubated for 15 min at 37° C. with 5% CO2 in humidified atmosphere. After preincubation the assay buffer was removed from the apical and basal inserts of the plate.
In apical to basolateral (A→B) transport, 75 μL of test or reference compound working solution to apical inserts and 235 μL of blank assay buffer were added to the corresponding basal compartments.
In basolateral to apical transport, 235 μL of test or reference compound working solution to the basal compartments and 75 μL of blank assay buffer solution were added to corresponding apical inserts.
The sandwich plate was incubated for 120 min in incubator at 5% CO2 and 37° C.
After incubation, 60 μL was transferred from receiver and donor compartments to collection plate.
For donor and C0 samples 20-fold dilution was accomplished by mixing 60 μL of collected sample with 1140 μL of transport buffer and from that solution aliquot 60 μL transfer Both receiver and donor samples were processed by adding […] of acetonitrile containing internal standard (60 μL of sample+240 μL of acetonitrile containing glyburide as internal standard, 125 ng/mL) and vortexing the samples. The compound concentration was measured in all samples using respective calibration standards by LC-MS/MS.
Calculate the Papp and recovery using the given formula:
[formula] [formula] • Where: dQ/dt=Permeability rate in μM/see • C0=Initial concentration in μM • A=Membrane surface area (0.33 cm^2) • V=Volume of receiver chamber • Cend, a=concentration in acceptor well at end of incubation • Cend, d=concentration in donor well at end of incubation • CHBSS=loading concentration measured in HBSS

wtKIT [3] = biological target: T1, wtKIT; assay: HTRF biochemical assay, wtKIT (phosphorylation of a peptide substrate); conditions: Table 4
Method in brief: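 HTRF read-out of FAM-peptide (1 µM) phosphorylation after anti-phosphotyrosine antibody addition and EDTA quench. Reaction: 5.0 nM wtKIT, 400 µM ATP, 10 mM Mn2+, HEPES pH 7.5, 1% DMSO, 3 h, 25 °C; optional enzyme-compound preincubation; enzyme level set for 10-20% conversion.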

T1 sequence (P10721 26-976): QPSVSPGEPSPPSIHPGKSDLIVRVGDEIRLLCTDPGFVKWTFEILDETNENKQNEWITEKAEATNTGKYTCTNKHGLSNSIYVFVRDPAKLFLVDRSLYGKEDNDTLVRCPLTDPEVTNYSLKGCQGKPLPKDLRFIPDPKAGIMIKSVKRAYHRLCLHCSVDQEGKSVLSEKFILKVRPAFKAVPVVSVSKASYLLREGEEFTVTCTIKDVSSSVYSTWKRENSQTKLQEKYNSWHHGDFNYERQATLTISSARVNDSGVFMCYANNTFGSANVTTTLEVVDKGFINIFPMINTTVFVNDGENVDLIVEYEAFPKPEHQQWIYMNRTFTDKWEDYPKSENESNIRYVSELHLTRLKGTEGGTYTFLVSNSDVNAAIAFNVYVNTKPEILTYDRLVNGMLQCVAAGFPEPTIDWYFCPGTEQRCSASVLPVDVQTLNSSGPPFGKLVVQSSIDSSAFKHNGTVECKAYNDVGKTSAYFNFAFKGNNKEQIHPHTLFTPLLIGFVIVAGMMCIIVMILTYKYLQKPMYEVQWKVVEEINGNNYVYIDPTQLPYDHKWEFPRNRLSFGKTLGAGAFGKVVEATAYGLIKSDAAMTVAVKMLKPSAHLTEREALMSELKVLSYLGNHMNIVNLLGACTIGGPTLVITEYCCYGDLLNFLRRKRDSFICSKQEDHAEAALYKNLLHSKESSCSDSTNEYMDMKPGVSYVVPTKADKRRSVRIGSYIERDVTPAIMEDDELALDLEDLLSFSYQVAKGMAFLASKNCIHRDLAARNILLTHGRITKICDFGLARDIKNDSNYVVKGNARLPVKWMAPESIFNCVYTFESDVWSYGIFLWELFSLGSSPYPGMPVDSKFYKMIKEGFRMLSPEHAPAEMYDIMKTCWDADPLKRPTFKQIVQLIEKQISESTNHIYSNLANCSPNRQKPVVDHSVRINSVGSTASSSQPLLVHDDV

| SMILES | IC50 (wtKIT [1]) | IC50 (CSF-1R) | IC50 (PDGFRα) | MDCK-BCRP: Efflux Ratio [2] | MDCK-BCRP: Papp A-B [2] | IC50 (wtKIT [3]) | Solubility (μM) (Kinetic solubility assay) |
| --- | --- | --- | --- | --- | --- | --- | --- |
| Cc1ccc(-c2noc([C@H](C)NS(C)(=O)=O)n2)cc1NC(=O)c1cnc2ccccn12 [Compound I-147] | ≤ 50 nM | 50 to 500 nM | 5000 to 30000 nM |  |  |  | ** (a solubility greater than 10 μM and less than or equal to 50 μM) |
| Cc1ccc(-c2noc(C3CCN3CCOC(F)(F)F)n2)cc1NC(=O)c1cnc2ccccn12 (racemic) [Compound I-168] | ≤ 50 nM | 50 to 500 nM | 500 to 5000 nM |  |  |  | ** (a solubility greater than 10 μM and less than or equal to 50 μM) |
| COC(=O)N1CC(c2nc(-c3ccc(C)c(NC(=O)c4cnc5cc(COCC(F)(F)F)ccn45)c3)no2)C1 [Compound I-128] | ≤ 50 nM | 50 to 500 nM | 5000 to 30000 nM |  |  |  | **** (a solubility less than or equal to 2 μM) |
| Cc1nc(-c2ccc(C)c(NC(=O)c3cnc4ccc(NCCO)cn34)c2)no1 [Compound I-176] | ≤ 50 nM | ≤ 50 nM | 50 to 500 nM |  |  |  | ** (a solubility greater than 10 μM and less than or equal to 50 μM) |
| Cc1ccc(-c2noc([C@H]3C[C@@H]3F)n2)cc1NC(=O)c1cnc2cc(Nc3ccc4c(c3)OCCO4)ccn12 [Compound I-301] | ≤ 50 nM | ≤ 50 nM | ≤ 50 nM |  |  |  | **** (a solubility less than or equal to 2 μM) |
| Cc1ccc(-c2noc(C3CC(S(=O)(=O)N(C)C)C3)n2)cc1NC(=O)c1cnc2ccccn12 (stereo not drawn) [Compound I-211] | ≤ 50 nM |  |  | 14.1 | 1.91 10^−6 cm/s | 50 to 500 nM | *** (a solubility greater than 2 μM and less than or equal to 10 μM) |
| Cc1ccc(-c2noc([C@H]3C[C@@H]3F)n2)cc1NC(=O)c1cnc2cc(Nc3c(C)cccc3C)ccn12 [Compound I-293] | 50 to 500 nM |  |  | 4.55 | 0.02 10^−6 cm/s |  | *** (a solubility greater than 2 μM and less than or equal to 10 μM) |
| COC(=O)N1CC(c2nc(-c3ccc(C)c(NC(=O)c4cnc5ccc(OC[C@H](C)O)cn45)c3)no2)C1 [Compound I-246] | ≤ 50 nM |  |  | 16.9 | 1.81 10^−6 cm/s | 50 to 500 nM | **** (a solubility less than or equal to 2 μM) |

More lines, main results first:

| IC50 (wtKIT [1]) | IC50 (CSF-1R) | IC50 (PDGFRα) | MDCK-BCRP: Efflux Ratio [2] | MDCK-BCRP: Papp A-B [2] | IC50 (wtKIT [3]) | SMILES | Solubility (μM) (Kinetic solubility assay) |
| --- | --- | --- | --- | --- | --- | --- | --- |
| ≤ 50 nM | 50 to 500 nM | 500 to 5000 nM |  |  |  | Cc1ccc(-c2noc(C3CCN3S(C)(=O)=O)n2)cc1NC(=O)c1cnc2ccccn12 (racemic) [Compound I-356] | ** (a solubility greater than 10 μM and less than or equal to 50 μM) |
| ≤ 50 nM | ≤ 50 nM | 50 to 500 nM |  |  |  | Cc1ccc(-c2noc(C3CCN3S(C)(=O)=O)n2)cc1NC(=O)c1cnc2ccccn12 (stereo not drawn) [Compound I-331] | ** (a solubility greater than 10 μM and less than or equal to 50 μM) |
| ≤ 50 nM | ≤ 50 nM | 50 to 500 nM |  |  |  | Cc1ccc(-c2noc([C@H]3C[C@@H]3F)n2)cc1NC(=O)c1cnc2cc(N3CCCCC3)ccn12 [Compound I-305] | **** (a solubility less than or equal to 2 μM) |
| 50 to 500 nM |  |  | 0.81 | 12 10^−6 cm/s |  | CCOC1CC(c2nc(-c3ccc(C)c(NC(=O)c4cnc5ccccn45)c3)no2)C1 (stereo not drawn) [Compound I-310] | **** (a solubility less than or equal to 2 μM) |
| ≤ 50 nM |  |  | 1.03 | 7.97 10^−6 cm/s |  | CSCC1(c2nc(-c3ccc(C)c(NC(=O)c4cnc5ccccn45)c3)no2)CC(F)(F)C1 [Compound I-354] | **** (a solubility less than or equal to 2 μM) |
| 50 to 500 nM |  |  | 1.33 | 20.3 10^−6 cm/s |  | Cc1ccc(-c2noc([C@H]3CCN(C(=O)OC(C)(C)C)C3)n2)cc1NC(=O)c1cnc2ccccn12 [Compound I-398] | *** (a solubility greater than 2 μM and less than or equal to 10 μM) |
| ≤ 50 nM |  |  | 1.05 | 14.3 10^−6 cm/s |  | Cc1ccc(-c2noc(C3(C)CC(F)(F)C3)n2)cc1NC(=O)c1cnc2ccccn12 [Compound I-385] | **** (a solubility less than or equal to 2 μM) |
| 50 to 500 nM |  |  | 63.9 | 0.47 10^−6 cm/s |  | Cc1ccc(-c2noc(C3CC(O)(C4(O)CCC4)C3)n2)cc1NC(=O)c1cnc2ccccn12 (stereo not drawn) [Compound I-357] | *** (a solubility greater than 2 μM and less than or equal to 10 μM) |
| ≤ 50 nM |  |  | 1.52 | 8.86 10^−6 cm/s |  | COC1CC(c2nc(-c3ccc(C)c(NC(=O)c4cnc5ccccn45)c3)no2)C1 (stereo not drawn) [Compound I-350] | ** (a solubility greater than 10 μM and less than or equal to 50 μM) |
| ≤ 50 nM |  |  | 1.31 | 10.2 10^−6 cm/s |  | COC(=O)C1CC(c2nc(-c3ccc(C)c(NC(=O)c4cnc5ccccn45)c3)no2)C1 (stereo not drawn) [Compound I-366] | **** (a solubility less than or equal to 2 μM) |
| ≤ 50 nM |  |  | 0.82 | 23.1 10^−6 cm/s |  | COC(=O)N1CC(c2nc(-c3ccc(Br)c(NC(=O)c4cnc5ccccn45)c3)no2)C1 [Compound I-338] | **** (a solubility less than or equal to 2 μM) |
